Test results taken from patent publication US12312332B2 (Merck Sharp & Dohme LLC., priority 2019, dated 2025).

Target: T1, human OX2R (Homo sapiens, UniProt O43614)
T1 construct: expressed in transfected cells; host or cells: Chinese hamster ovary (CHO) cells, kept under G418 selection
T1 sequence (O43614 1-444): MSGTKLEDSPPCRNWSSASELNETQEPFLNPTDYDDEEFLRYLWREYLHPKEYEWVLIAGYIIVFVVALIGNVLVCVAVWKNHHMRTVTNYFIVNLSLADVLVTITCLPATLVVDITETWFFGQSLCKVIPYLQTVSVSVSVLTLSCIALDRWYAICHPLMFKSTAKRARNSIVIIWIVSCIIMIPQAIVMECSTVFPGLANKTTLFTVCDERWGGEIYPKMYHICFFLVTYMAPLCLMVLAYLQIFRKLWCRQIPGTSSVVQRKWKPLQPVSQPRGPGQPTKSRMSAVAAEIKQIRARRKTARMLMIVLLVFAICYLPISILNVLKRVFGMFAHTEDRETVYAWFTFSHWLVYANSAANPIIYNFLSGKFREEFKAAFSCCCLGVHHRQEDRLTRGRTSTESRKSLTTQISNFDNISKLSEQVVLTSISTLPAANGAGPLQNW
Assay: IPOne (IP-One) orexin receptor agonist assay in CHO cells expressing human OX2R
Type: cell-based
Settings: for EC50: CHO cells expressing human OX2R, IP-One detection, 2 hours incubation, four parameter logistic fit, read-out: OX2R Potency, EC50; for % max agonist effect (Emax): human OX2R, percentage of sample raw value/mean max effect (reference compound at 1 uM with 100% activity)

| SMILES | EC50 | % max agonist effect (Emax) |
| --- | --- | --- |
| CS(=O)(=O)N[C@H]1CCN(c2nccc(O)c2F)[C@H]1CO[C@H]1CC[C@@H](c2cccc(F)c2)CC1 [Example 96, N-((2R,3S)-1-(3-fluoro-4-hydroxypyridin-2-yl)-2-((((CIS)-4-(3-fluorophenyl)cyclohexyl)oxy)methyl)pyrrolidin-3-yl)methanesulfonamide] | 0.23 nM | 101.6% |
| CS(=O)(=O)N[C@H]1CCN(c2cc(O)c(Cl)cn2)[C@H]1CO[C@H]1CC[C@@H](c2cccc(F)c2)CC1 [Example 97, N-((2R,3S)-1-(5-chloro-4-hydroxypyridin-2-yl)-2-((((CIS)-4-(3-fluorophenyl)cyclohexyl)oxy)methyl)pyrrolidin-3-yl)methanesulfonamide] | 0.6 nM | 100.9% |
| CS(=O)(=O)N[C@H]1CCN(c2ncc(Cl)c(O)c2F)[C@H]1CO[C@H]1CC[C@@H](c2cccc(F)c2)CC1 [Example 98, N-((2R,3S)-1-(5-chloro-3-fluoro-4-hydroxypyridin-2-yl)-2-((((CIS)-4-(3-fluorophenyl)cyclohexyl)oxy)methyl)pyrrolidin-3-yl)methanesulfonamide] | 0.76 nM | 101.4% |
| CS(=O)(=O)N[C@H]1CCN(c2cc(O)c(F)cn2)[C@H]1CO[C@H]1CC[C@@H](c2cccc(F)c2)CC1 [Example 99, N-((2R,3S)-1-(5-fluoro-4-hydroxypyridin-2-yl)-2-((((CIS)-4-(3-fluorophenyl)cyclohexyl)oxy)methyl)pyrrolidin-3-yl)methanesulfonamide] | 0.27 nM | 101.2% |
| COc1c(F)cnc(N2CC[C@H](NS(C)(=O)=O)[C@@H]2CO[C@H]2CC[C@@H](c3cccc(F)c3)CC2)c1F [Example 100, N-((2R,3S)-1-(3,5-difluoro-4-methoxypyridin-2-yl)-2-((((CIS)-4-(3-fluorophenyl)cyclohexyl)oxy)methyl)pyrrolidin-3-yl)methanesulfonamide] | 716 nM | 99.6% |
| CS(=O)(=O)N[C@H]1CCN(c2ncc(F)c(O)c2F)[C@H]1CO[C@H]1CC[C@@H](c2ccccc2)CC1 [Example 101, N-((2R,3S)-1-(3,5-difluoro-4-hydroxypyridin-2-yl)-2-((((CIS)-4-phenylcyclohexyl)oxy)methyl)pyrrolidin-3-yl)methanesulfonamide] | 2 nM | 100.5% |
| CS(=O)(=O)N[C@H]1CCN(c2ncc(CO)s2)[C@H]1CO[C@H]1CC[C@@H](c2ccccc2)CC1 [Example 102, N-((2R,3S)-1-(5-(hydroxymethyl)thiazol-2-yl)-2-((((CIS)-4-phenylcyclohexyl)oxy)methyl)pyrrolidin-3-yl)methanesulfonamide] | 4830 nM | 67.4% |
| COC(=O)c1csc(N2CC[C@H](NS(C)(=O)=O)[C@@H]2CO[C@H]2CC[C@@H](c3ccccc3)CC2)n1 [Example 103, methyl 2-((2R,3S)-3-(methylsulfonamido)-2-((((CIS)-4-phenylcyclohexyl)oxy)methyl)pyrrolidin-1-yl)thiazole-4-carboxylate] | 1190 nM | 93% |
| COC(=O)c1cnc(N2CC[C@H](NS(C)(=O)=O)[C@@H]2CO[C@H]2CC[C@@H](c3ccccc3)CC2)s1 [Example 104, methyl 2-((2R,3S)-3-(methylsulfonamido)-2-((((CIS)-4-phenylcyclohexyl)oxy)methyl)pyrrolidin-1-yl)thiazole-5-carboxylate] | 1190 nM | 100% |
| Cc1sc(N2CC[C@H](NS(C)(=O)=O)[C@@H]2CO[C@H]2CC[C@@H](c3ccccc3)CC2)nc1O [Example 105, N-((2R,3S)-1-(4-hydroxy-5-methylthiazol-2-yl)-2-((((CIS)-4-phenylcyclohexyl)oxy)methyl)pyrrolidin-3-yl)methanesulfonamide] | 703 nM | 97.9% |
| Cc1sc(N2CC[C@H](NS(C)(=O)=O)[C@@H]2CO[C@H]2CC[C@@H](c3ccccc3)CC2)nc1Br [Example 106, N-((2R,3S)-1-(4-bromo-5-methylthiazol-2-yl)-2-((((CIS)-4-phenylcyclohexyl)oxy)methyl)pyrrolidin-3-yl)methanesulfonamide] | 1700 nM | 98.0% |
| CS(=O)(=O)N[C@H]1CCN(c2nc(O)cs2)[C@H]1CO[C@H]1CC[C@@H](c2ccccc2)CC1 [Example 107, N-((2R,3S)-1-(4-hydroxythiazol-2-yl)-2-((((CIS)-4-phenylcyclohexyl)oxy)methyl)pyrrolidin-3-yl)methanesulfonamide] | 676 nM | 97.2% |
| CS(=O)(=O)N[C@H]1CCN(c2nc(Br)cs2)[C@H]1CO[C@H]1CC[C@@H](c2ccccc2)CC1 [Example 108, N-((2R,3S)-1-(4-bromothiazol-2-yl)-2-((((CIS)-4-phenylcyclohexyl)oxy)methyl)pyrrolidin-3-yl)methanesulfonamide] | 1120 nM | 97.4% |
| Cc1nc(N2CC[C@H](NS(C)(=O)=O)[C@@H]2CO[C@H]2CC[C@@H](c3ccccc3)CC2)cs1 [Example 109, N-((2R,3S)-1-(2-methylthiazol-4-yl)-2-((((CIS)-4-phenylcyclohexyl)oxy)methyl)pyrrolidin-3-yl)methanesulfonamide] | 140 nM | 97.7% |
| CS(=O)(=O)N[C@H]1CCN(c2cscn2)[C@H]1CO[C@H]1CC[C@@H](c2ccccc2)CC1 [Example 110, N-((2R,3S)-2-((((CIS)-4-phenylcyclohexyl)oxy)methyl)-1-(thiazol-4-yl)pyrrolidin-3-yl)methanesulfonamide] | 17.9 nM | 102% |
| Cn1cccc(N2CC[C@H](NS(C)(=O)=O)[C@@H]2CO[C@H]2CC[C@@H](c3ccccc3)CC2)c1=O [Example 111, N-((2R,3S)-1-(1-methyl-2-oxo-1,2-dihydropyridin-3-yl)-2-((((CIS)-4-phenylcyclohexyl)oxy)methyl)pyrrolidin-3-yl)methanesulfonamide] | 108 nM | 100% |
| Cn1cc(N2CC[C@H](NS(C)(=O)=O)[C@@H]2CO[C@H]2CC[C@@H](c3ccccc3)CC2)ccc1=O [Example 112, N-((2R,3S)-1-(1-methyl-6-oxo-1,6-dihydropyridin-3-yl)-2-((((CIS)-4-phenylcyclohexyl)oxy)methyl)pyrrolidin-3-yl)methanesulfonamide] | 4650 nM | 88.2% |
| CS(=O)(=O)N[C@H]1CCN(c2cc(O)c(Cl)cn2)[C@H]1CO[C@H]1CC[C@@H](c2ccccc2)CC1 [Example 113, N-((2R,3S)-1-(5-chloro-4-hydroxypyridin-2-yl)-2-((((CIS)-4-phenylcyclohexyl)oxy)methyl)pyrrolidin-3-yl)methanesulfonamide] | 1.1 nM | 102.4% |
| CS(=O)(=O)N[C@H]1CCN(c2ncc(Cl)c(O)c2F)[C@H]1CO[C@H]1CC[C@@H](c2ccccc2)CC1 [Example 114, N-((2R,3S)-1-(5-chloro-3-fluoro-4-hydroxypyridin-2-yl)-2-((((CIS)-4-phenylcyclohexyl)oxy)methyl)pyrrolidin-3-yl)methanesulfonamide] | 1.7 nM | 102.4% |
